# Measurements reported in patent US8802597B2, “Herbicidal pyrimidines” (E I du Pont de Nemours and Company, priority 2003, dated 2014).
# Columns and labels:
# Type in all cases: in vivo
# [1] = tested on: pigweed (Amaranthus retroflexus); assay: Test B pre/postemergence
# In short: (§1)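 Visual injury scored 0 (no effect) to 100 (complete control) versus untreated controls after 13 to 15 days in greenhouse. Treatments were pre- or postemergence sprays of surfactant-containing solvent formulations; postemergence plants at 1- to 4-leaf stage, 2 to 18 cm.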
# [2] = tested on: cocklebur (Xanthium strumarium); assay: Test B pre/postemergence
# In short: as §1
# [3] = tested on: velvetleaf (Abutilon theophrasti); assay: Test B pre/postemergence
# In short: as §1
# [4] = tested on: barnyardgrass (Echinochloa crus-galli); assay: Test B pre/postemergence
# In short: as §1
# corn (Zea mays) = assay: Test B pre/postemergence
# In short: as §1
# [5] = tested on: Surinam grass (Brachiaria decumbens); assay: Test B pre/postemergence
# In short: as §1
# [6] = tested on: giant foxtail (Setaria faberii); assay: Test B pre/postemergence
# In short: as §1
# [7] = tested on: lambsquarters (Chenopodium album); assay: Test B pre/postemergence
# In short: as §1
# [8] = tested on: wheat (Triticum aestivum); assay: Test B pre/postemergence
# In short: as §1
# [9] = tested on: crabgrass (Digitaria sanguinalis); assay: Test B pre/postemergence
# In short: as §1
# [10] = tested on: morningglory (Ipomoea coccinea); assay: Test B pre/postemergence
# In short: as §1
# [11] = tested on: barnyardgrass (Echinochloa crus-galli); assay: Test B flooded paddy test; details: Flood, 1000 g ai/ha; scale 0 (no effect) to 100 (complete control)
# In short: (§2)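 Rice, umbrella sedge, duck salad and barnyardgrass grown to 2-leaf stage under flooded paddy conditions and treated with formulated test chemicals. Kept in greenhouse 13–15 days, then visually rated against untreated controls on a 0–100 scale (0 no effect, 100 complete control).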
# [12] = tested on: umbrella sedge (Cyperus difformis); assay: Test B flooded paddy test; details: Flood, 1000 g ai/ha; scale 0 to 100
# In short: as §2
# rice (Oryza sativa) = assay: Test B flooded paddy test; details: Flood, 1000 g ai/ha; scale 0 to 100
# In short: as §2
# [13] = tested on: duck salad (Heteranthera limosa); assay: Test B flooded paddy test; details: Flood, 1000 g ai/ha; scale 0 to 100
# In short: as §2
# [14] = tested on: blackgrass (Alopecurus myosuroides); assay: Test B postemergence; details: for Blackgrass plant response rating: 125 g ai/ha, scale 0 to 100 (0 no effect, 100 complete control); for Plant response rating, Blackgrass: 500 g ai/ha, scale 0 to 100
# In short: as §1
# wild oat (Avena fatua) = assay: Test B postemergence; details: for Oat, Wild plant response rating: 125 g ai/ha, scale 0 to 100 (0 no effect, 100 complete control); for Plant response rating, Oat, Wild: 500 g ai/ha, scale 0 to 100
# In short: as §1
# [15] = Postemergence, 125 g ai/ha, scale 0 to 100 (0 no effect, 100 complete control)
# [16] = Postemergence, 500 g ai/ha, scale 0 to 100
# [17] = Preemergence, 125 g ai/ha, scale 0 to 100 (0 no effect, 100 complete control)
# [18] = Preemergence, 500 g ai/ha, scale 0 to 100 (0 no effect, 100 complete control)
structure (smiles),measurement,setting,value
CCCCOC(=O)c1nc(C2CC2)nc(N)c1Br [Compound 16],Pigweed plant response rating,[1]; [15],90
same,"Plant response rating, Pigweed",[1]; [16],100
same,"Plant response rating, Pigweed",[1]; [17],90
same,Pigweed plant response rating,[1]; [18],90
same,Cocklebur plant response rating,[2]; [15],90
same,"Plant response rating, Cocklebur",[2]; [16],100
same,"Plant response rating, Cocklebur",[2]; [17],70
same,Cocklebur plant response rating,[2]; [18],100
same,Velvetleaf plant response rating,[3]; [15],80
same,"Plant response rating, Velvetleaf",[3]; [16],90
same,"Plant response rating, Velvetleaf",[3]; [17],80
same,Velvetleaf plant response rating,[3]; [18],100
same,Barnyardgrass plant response rating,[4]; [15],70
same,"Plant response rating, Barnyardgrass",[4]; [16],90
same,"Plant response rating, Barnyardgrass",[4]; [17],30
same,Barnyardgrass plant response rating,[4]; [18],90
same,Corn plant response rating,corn (Zea mays); [15],30
same,"Plant response rating, Corn",corn (Zea mays); [16],80
same,"Plant response rating, Corn",corn (Zea mays); [17],30
same,Corn plant response rating,corn (Zea mays); [18],70
same,Surinam Grass plant response rating,[5]; [15],60
same,"Plant response rating, Surinam Grass",[5]; [16],90
same,"Plant response rating, Surinam Grass",[5]; [17],40
same,Surinam Grass plant response rating,[5]; [18],80
same,"Foxtail, Giant plant response rating",[6]; [15],30
same,"Plant response rating, Foxtail, Giant",[6]; [16],80
same,"Plant response rating, Foxtail, Giant",[6]; [17],30
same,"Foxtail, Giant plant response rating",[6]; [18],80
same,Lambsquarters plant response rating,[7]; [15],100
same,"Plant response rating, Lambsquarters",[7]; [16],100
same,"Plant response rating, Lambsquarters",[7]; [17],100
same,Lambsquarters plant response rating,[7]; [18],100
same,Wheat plant response rating,[8]; [15],30
same,"Plant response rating, Wheat",[8]; [16],60
same,"Plant response rating, Wheat",[8]; [17],50
same,Wheat plant response rating,[8]; [18],60
same,Crabgrass plant response rating,[9]; [15],30
same,"Plant response rating, Crabgrass",[9]; [16],80
same,"Plant response rating, Crabgrass",[9]; [17],70
same,Crabgrass plant response rating,[9]; [18],100
same,Morningglory plant response rating,[10]; [15],100
same,"Plant response rating, Morningglory",[10]; [16],100
same,"Plant response rating, Morningglory",[10]; [17],90
same,Morningglory plant response rating,[10]; [18],100
same,"Plant response rating, Barnyardgrass",[11],90
same,"Plant response rating, Sedge, Umbrella",[12],60
same,"Plant response rating, Rice",rice (Oryza sativa),70
same,"Plant response rating, Ducksalad",[13],90
same,Blackgrass plant response rating,[14],10
same,"Plant response rating, Blackgrass",[14],70
same,"Oat, Wild plant response rating",wild oat (Avena fatua),10
same,"Plant response rating, Oat, Wild",wild oat (Avena fatua),60
CCOC(=O)c1nc(C2CC2)nc(N=CN(C)C)c1Br [Compound 40],Pigweed plant response rating,[1]; [15],0
same,"Plant response rating, Pigweed",[1]; [16],100
same,"Plant response rating, Pigweed",[1]; [17],90
same,Pigweed plant response rating,[1]; [18],100
same,Cocklebur plant response rating,[2]; [15],0
same,"Plant response rating, Cocklebur",[2]; [16],90
same,"Plant response rating, Cocklebur",[2]; [17],90
same,Cocklebur plant response rating,[2]; [18],100
same,Velvetleaf plant response rating,[3]; [15],0
same,"Plant response rating, Velvetleaf",[3]; [16],90
same,"Plant response rating, Velvetleaf",[3]; [17],90
same,Velvetleaf plant response rating,[3]; [18],90
same,Barnyardgrass plant response rating,[4]; [15],0
same,"Plant response rating, Barnyardgrass",[4]; [16],90
same,"Plant response rating, Barnyardgrass",[4]; [17],50
same,Barnyardgrass plant response rating,[4]; [18],90
same,Corn plant response rating,corn (Zea mays); [15],0
same,"Plant response rating, Corn",corn (Zea mays); [16],60
same,"Plant response rating, Corn",corn (Zea mays); [17],0
same,Corn plant response rating,corn (Zea mays); [18],50
same,Surinam Grass plant response rating,[5]; [15],0
same,"Plant response rating, Surinam Grass",[5]; [16],70
same,"Plant response rating, Surinam Grass",[5]; [17],50
same,Surinam Grass plant response rating,[5]; [18],70
same,"Foxtail, Giant plant response rating",[6]; [15],0
same,"Plant response rating, Foxtail, Giant",[6]; [16],60
same,"Plant response rating, Foxtail, Giant",[6]; [17],20
same,"Foxtail, Giant plant response rating",[6]; [18],80
same,Lambsquarters plant response rating,[7]; [15],0
same,"Plant response rating, Lambsquarters",[7]; [16],100
same,"Plant response rating, Lambsquarters",[7]; [17],100
same,Lambsquarters plant response rating,[7]; [18],100
same,Wheat plant response rating,[8]; [15],50
same,"Plant response rating, Wheat",[8]; [16],60
same,"Plant response rating, Wheat",[8]; [17],40
same,"Plant response rating, Wheat",[8]; [18],70
same,Crabgrass plant response rating,[9]; [15],0
same,"Plant response rating, Crabgrass",[9]; [16],80
same,"Plant response rating, Crabgrass",[9]; [17],60
same,Crabgrass plant response rating,[9]; [18],80
same,Morningglory plant response rating,[10]; [15],0
same,"Plant response rating, Morningglory",[10]; [16],100
same,"Plant response rating, Morningglory",[10]; [17],90
same,Morningglory plant response rating,[10]; [18],100
same,"Plant response rating, Barnyardgrass",[11],70
same,"Plant response rating, Sedge, Umbrella",[12],70
same,"Plant response rating, Rice",rice (Oryza sativa),60
same,"Plant response rating, Ducksalad",[13],80
same,Blackgrass plant response rating,[14],50
same,"Plant response rating, Blackgrass",[14],60
same,"Oat, Wild plant response rating",wild oat (Avena fatua),40
same,"Plant response rating, Oat, Wild",wild oat (Avena fatua),60
COC(=O)Cc1nc(C2CC2)nc(N)c1Br [Compound 13],Pigweed plant response rating,[1]; [15],50
same,"Plant response rating, Pigweed",[1]; [16],70
same,"Plant response rating, Pigweed",[1]; [17],80
same,Pigweed plant response rating,[1]; [18],90
same,Cocklebur plant response rating,[2]; [15],10
same,"Plant response rating, Cocklebur",[2]; [16],40
same,"Plant response rating, Cocklebur",[2]; [17],90
same,Cocklebur plant response rating,[2]; [18],100
same,Velvetleaf plant response rating,[3]; [15],40
same,"Plant response rating, Velvetleaf",[3]; [16],50
same,"Plant response rating, Velvetleaf",[3]; [17],80
same,Velvetleaf plant response rating,[3]; [18],90
same,Barnyardgrass plant response rating,[4]; [15],0
same,"Plant response rating, Barnyardgrass",[4]; [16],10
same,"Plant response rating, Barnyardgrass",[4]; [17],40
same,Barnyardgrass plant response rating,[4]; [18],80
same,Corn plant response rating,corn (Zea mays); [15],0
same,"Plant response rating, Corn",corn (Zea mays); [16],0
same,Corn plant response rating,corn (Zea mays); [18],30
same,Surinam Grass plant response rating,[5]; [15],0
same,"Plant response rating, Surinam Grass",[5]; [16],0
same,"Plant response rating, Surinam Grass",[5]; [17],0
same,"Foxtail, Giant plant response rating",[6]; [15],10
same,"Plant response rating, Foxtail, Giant",[6]; [16],20
same,"Plant response rating, Foxtail, Giant",[6]; [17],20
same,"Foxtail, Giant plant response rating",[6]; [18],40
same,Lambsquarters plant response rating,[7]; [15],60
same,"Plant response rating, Lambsquarters",[7]; [16],70
same,"Plant response rating, Lambsquarters",[7]; [17],90
same,Lambsquarters plant response rating,[7]; [18],100
same,Wheat plant response rating,[8]; [15],0
same,"Plant response rating, Wheat",[8]; [16],0
same,"Plant response rating, Wheat",[8]; [17],40
same,Wheat plant response rating,[8]; [18],60
same,Crabgrass plant response rating,[9]; [15],20
same,"Plant response rating, Crabgrass",[9]; [16],30
same,"Plant response rating, Crabgrass",[9]; [17],50
same,Crabgrass plant response rating,[9]; [18],70
same,Morningglory plant response rating,[10]; [15],50
same,"Plant response rating, Morningglory",[10]; [16],70
same,"Plant response rating, Morningglory",[10]; [17],90
same,Morningglory plant response rating,[10]; [18],100
same,"Plant response rating, Barnyardgrass",[11],0
same,"Plant response rating, Sedge, Umbrella",[12],0
same,"Plant response rating, Rice",rice (Oryza sativa),0
same,"Plant response rating, Ducksalad",[13],0
same,Blackgrass plant response rating,[14],10
same,"Plant response rating, Blackgrass",[14],20
same,"Oat, Wild plant response rating",wild oat (Avena fatua),0
same,"Plant response rating, Oat, Wild",wild oat (Avena fatua),0
